Experimental data from ChEMBL document CHEMBL1201862, “PubChem BioAssay data set” (2004).
Where a name gives a salt, the structure may show the parent alone.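 Following 48 hours of exposure in 96-well plates, responses at five concentrations were used to interpolate endpoints linearly. Abbreviation: GI50, concentration required for 50% inhibition of growth.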 The source made the active and inactive calls. Rule as the data show it: active = GI50 up to about 1.1 µM and inactive = higher. Residues, ends and D or L forms follow the SMILES beside them. *: point of attachment. Bn = c1ccc(C*)cc1

Experiments:
Assay in all cases: growth of human tumour cells (NCI), 48 h
SN12C = test system: SN12C
HCT-116 = test system: HCT-116
OVCAR-8 = test system: OVCAR-8
K562 = test system: K562
CAKI-1 = test system: CAKI-1
SNB-19 = test system: SNB-19
NCI-H226 = test system: NCI-H226
EKVX = test system: EKVX
A549 = test system: A549
OVCAR-3 = test system: OVCAR-3
PC-3 = test system: PC-3
SNB-75 = test system: SNB-75
NCI-H522 = test system: NCI-H522
HOP-92 = test system: HOP-92
T47D = test system: T47D
Hs-578T = test system: Hs-578T
DU-145 = test system: DU-145
RPMI-8226 = test system: RPMI-8226
A498 = test system: A498

Structure (SMILES)	GI50 (SN12C)	GI50 (HCT-116)	GI50 (OVCAR-8)	GI50 (K562)	GI50 (CAKI-1)	GI50 (SNB-19)	GI50 (NCI-H226)	GI50 (EKVX)	GI50 (A549)	GI50 (OVCAR-3)	GI50 (PC-3)	GI50 (SNB-75)	GI50 (NCI-H522)	GI50 (HOP-92)	GI50 (T47D)	GI50 (Hs-578T)	GI50 (DU-145)	GI50 (RPMI-8226)	GI50 (A498)
CC1=C(C2=C(C)C(=O)C(=O)c3cc(C)ccc32)c2ccc(C)cc2C(=O)C1=O	0.197 µM (active)	0.333 µM (active)	0.245 µM (active)	0.185 µM (active)	0.182 µM (active)	0.15 µM (active)	1.9 µM (inactive)	0.28 µM (active)	1.7 µM (inactive)	0.153 µM (active)	0.298 µM (active)	0.236 µM (active)	0.21 µM (active)	0.174 µM (active)	0.249 µM (active)	0.318 µM (active)	1.44 µM (inactive)	0.333 µM (active)	1.59 µM (inactive)
O=S1(=O)NC2CCC3NS(=O)(=O)NC4CCC(N1)N4S(=O)(=O)N23 (configuration not stated)	> 100 µM (inactive)	> 100 µM (inactive)	> 100 µM (inactive)	> 100 µM (inactive)	> 100 µM (inactive)	> 100 µM (inactive)	> 100 µM (inactive)	> 100 µM (inactive)	> 100 µM (inactive)	> 100 µM (inactive)	> 100 µM (inactive)	> 100 µM (inactive)	> 100 µM (inactive)	> 100 µM (inactive)	> 100 µM (inactive)	> 100 µM (inactive)	> 100 µM (inactive)	> 100 µM (inactive)	> 100 µM (inactive)
COC(=O)C(CC(C)C)NC(=O)C(N)Cc1ccc(OCc2ccccc2)cc1 (configuration not stated) (H-Tyr(Bn)-Leu-OMe; configuration not given here)	> 10 µM (inactive)	> 10 µM (inactive)	> 10 µM (inactive)	> 10 µM (inactive)	> 10 µM (inactive)	> 10 µM (inactive)	> 10 µM (inactive)	> 10 µM (inactive)	> 10 µM (inactive)	> 10 µM (inactive)	> 10 µM (inactive)	> 10 µM (inactive)	> 10 µM (inactive)	> 10 µM (inactive)	> 10 µM (inactive)	> 10 µM (inactive)	> 10 µM (inactive)	> 10 µM (inactive)	> 10 µM (inactive)
Nc1nc2[nH]cc(CCc3ccc(C(=O)N[C@@H](CCC(=O)O)C(=O)O)cc3)c2c(=O)[nH]1 [PEMETREXED]	> 100 µM (inactive)	0.0597 µM (active)	–	< 0.0258 µM (active)	> 100 µM (inactive)	> 100 µM (inactive)	> 100 µM (inactive)	> 100 µM (inactive)	1.4 µM (inactive)	> 100 µM (inactive)	> 100 µM (inactive)	> 100 µM (inactive)	> 100 µM (inactive)	> 100 µM (inactive)	> 100 µM (inactive)	> 100 µM (inactive)	> 100 µM (inactive)	–	0.27 µM (active)
CCCc1cn2c(/C=N/NC(=N)N)c(-c3ccc(Cl)c([N+](=O)[O-])c3)nc2s1	1.84 µM (inactive)	1.22 µM (inactive)	1.82 µM (inactive)	1.37 µM (inactive)	1.82 µM (inactive)	1.5 µM (inactive)	1.99 µM (inactive)	–	1.73 µM (inactive)	1.55 µM (inactive)	1.81 µM (inactive)	1.74 µM (inactive)	1.98 µM (inactive)	1.68 µM (inactive)	1.42 µM (inactive)	2.01 µM (inactive)	1.77 µM (inactive)	1.64 µM (inactive)	1.66 µM (inactive)
CC1=C(C)C(=O)C(C2=C(C3=CC(=O)C(C)=C(C)C3=O)C(=O)C(C)=C(C)C2=O)=CC1=O	13.9 µM (inactive)	5.45 µM (inactive)	4.41 µM (inactive)	–	3.44 µM (inactive)	> 56.8 µM (inactive)	11 µM (inactive)	20.8 µM (inactive)	30.3 µM (inactive)	–	4.62 µM (inactive)	16.6 µM (inactive)	1.95 µM (inactive)	0.61 µM (active)	2.75 µM (inactive)	16.1 µM (inactive)	14 µM (inactive)	–	14.3 µM (inactive)
O=C(O)CN1C(=O)C(Cc2ccc(O)cc2)N=C(c2cccc(O)c2)c2ccccc21 (configuration not stated)	19 µM (inactive)	> 100 µM (inactive)	> 100 µM (inactive)	> 100 µM (inactive)	–	> 100 µM (inactive)	> 100 µM (inactive)	> 100 µM (inactive)	> 100 µM (inactive)	> 100 µM (inactive)	> 100 µM (inactive)	40 µM (inactive)	80.4 µM (inactive)	> 100 µM (inactive)	> 100 µM (inactive)	> 100 µM (inactive)	> 100 µM (inactive)	> 100 µM (inactive)	12 µM (inactive)
COc1ccc(P2(=S)Oc3ccccc3-c3ccccc3O2)cc1	0.37 µM (active)	0.524 µM (active)	0.802 µM (active)	0.196 µM (active)	0.271 µM (active)	0.521 µM (active)	7.1 µM (inactive)	–	0.449 µM (active)	0.226 µM (active)	0.193 µM (active)	0.337 µM (active)	0.193 µM (active)	4.18 µM (inactive)	36.1 µM (inactive)	0.466 µM (active)	0.542 µM (active)	–	0.306 µM (active)
CC(Br)CN(CC(C)Br)c1ccc2c(c1)Cc1ccccc1-2 (configuration not stated)	11.4 µM (inactive)	11.6 µM (inactive)	9.98 µM (inactive)	5.92 µM (inactive)	9.2 µM (inactive)	13.6 µM (inactive)	–	13.8 µM (inactive)	12.1 µM (inactive)	11.7 µM (inactive)	10.8 µM (inactive)	12.2 µM (inactive)	6.9 µM (inactive)	7.62 µM (inactive)	10.1 µM (inactive)	13.4 µM (inactive)	11.1 µM (inactive)	3.27 µM (inactive)	13 µM (inactive)
CN[C@@H]1[C@H](O)[C@H](NC)[C@H]2O[C@@]3(O)C(=O)C[C@@H](C)O[C@H]3O[C@@H]2[C@H]1O [SPECTINOMYCIN SULFATE]	> 100 µM (inactive)	> 100 µM (inactive)	> 100 µM (inactive)	> 100 µM (inactive)	> 100 µM (inactive)	> 100 µM (inactive)	> 100 µM (inactive)	> 100 µM (inactive)	–	> 100 µM (inactive)	> 100 µM (inactive)	> 100 µM (inactive)	> 100 µM (inactive)	> 100 µM (inactive)	> 100 µM (inactive)	> 100 µM (inactive)	> 100 µM (inactive)	> 100 µM (inactive)	> 100 µM (inactive)
CN[C@@H](C)[C@H](OP(=O)(O)OC1[C@@H](O)[C@H](O)C(O)[C@H](O)[C@@H]1O)c1ccccc1 (some centres not stated)	> 100 µM (inactive)	> 100 µM (inactive)	> 100 µM (inactive)	–	> 100 µM (inactive)	> 100 µM (inactive)	> 100 µM (inactive)	> 100 µM (inactive)	> 100 µM (inactive)	> 100 µM (inactive)	> 100 µM (inactive)	> 100 µM (inactive)	> 100 µM (inactive)	> 100 µM (inactive)	> 100 µM (inactive)	> 100 µM (inactive)	> 100 µM (inactive)	> 100 µM (inactive)	> 100 µM (inactive)
